Reference: patent US8481724B2, “Synthesis of 2,4-pyrimidinediamines” (Rigel Pharmaceuticals, Inc., priority 2009, dated 2013)

Legend:
[1] = water solubility in aqueous buffer under physiological conditions; type: physicochemical; details: prodrug versus parent compound of formula IV, same conditions
[2] = cited from earlier work

Row | SMILES | solubility relative to compound of formula IV (times greater) [1] | solubility ([2]; aqueous buffer under physiological conditions (same conditions as formula IV)) | water solubility ([2]; aqueous buffer under physiological conditions)
1 | COc1cc(Nc2ncc(F)c(Nc3ccc4c(n3)N(COP(=O)(O)O)C(=O)C(C)(C)O4)n2)cc(OC)c1OC [compound of formula II] | approximately 2000 times | greater than 5 mg/mL | 
2 | COc1cc(Nc2ncc(F)c(Nc3ccc4c(n3)NC(=O)C(C)(C)O4)n2)cc(OC)c1OC [compound of formula IV] |  |  | 1 to 2 µg/mL
